This is an account of results in patent US20250026789A1, “PEPTIDE HAVING INHIBITORY ACTIVITY AGAINST AMYLOID PRECURSOR PROTEIN AND USE THEREOF” ([…]., priority 2021, published 2025).

“Also recorded” adds a separate entry of the source.

Common to all, as to format: cell-based, human
The test system of one experiment is ADAM 17. As to the kind of experiment: ADAM 17 expression by real-time qPCR in SH-SY5Y cells. The settings on record: peptide 0.001, 0.01, 0.1, or 1 mM, 24 hours, vs control group without peptide. As for the experimental part: (§1) ADAM 17 is an enzyme that removes APP from the cell membrane surface by cleaving it into a non-toxic fragment, sAPPa. Therefore, the increased expression of ADAM 17 may be used as an indicator of a therapeutic effect on a neurodegenerative disease. Specifically, the prepared peptides were added to SH-SY5Y, a neural cell line, at a concentration of 0.001, 0.01, 0.1, or 1 mM, and cultured at 37° C. and 5% CO2 for 24 hours. Afterward, total RNA was extracted from the culture, cDNA was synthesized, and real-time qPCR was performed using the ADAM 17 primers shown in Table 4 below to measure the expression level of […]. In addition, the prepared peptides were added to SH-SY5Y, a human neural cell line, at a concentration of 0.001, 0.01, 0.1, or 1mM, and cultured at 37° C. and 5% CO2 for 24 hours. Afterward, the expression of ADAM 17 protein from the culture and the expression of sAPPa, which was cleaved from APP by ADAM 17 and ADAM 10 and released, were confirmed through Western blotting using antibodies against each protein. In addition, the distribution of APP on the surface of a nerve cell membrane was analyzed using flow cytometric analysis. Meanwhile, a group to which no peptide was added was used as a control group.
The prepared peptides were added to SH-SY5Y, a neural cell line, at a concentration of 0.001, 0.01, 0.1, or 1 mM, and the cells were cultured at 37° C. and 5% CO2 for 24 hours. Afterward, total RNA was extracted from the culture, cDNA was synthesized, and real-time qPCR was performed using the ADAM 17 primers in Table 4 above to measure the expression level of ADAM 17. Meanwhile, a group to which no peptide was added was used as a control group.
In general terms: In qPCR the cycle at which signal appears reflects the starting amount.

For the next experiment, the system named is sAPPa. As to the kind of experiment: sAPPa expression by Western blotting in SH-SY5Y cells. The settings on record: peptide 0.001, 0.01, 0.1, or 1 mM, 24 hours, vs control group without peptide. As for the experimental part:
as §1
(In western blotting, separated proteins are transferred to a membrane and probed.)

The subject of a further experiment is SH-SY5Y. As to the kind of experiment: Neurite growth in SH-SY5Y cells (microscope, length). The settings on record: peptide 0.01, 0.1, or 1 mM, 24 hours. As for the experimental part:
In the present example, to confirm the regeneration of neurons by treatment with the peptides, the growth of neurites was confirmed. Specifically, the prepared peptides were added to SH-SY5Y, a human neural cell line, at a concentration of 0.01, 0.1, or 1 mM, and the cells were cultured for 24 hours. Afterward, the grown neurites were confirmed through a microscope, and their length was measured and evaluated.

Another experiment concerns ADAM 17 protein. Kind of experiment: ADAM 17 protein expression by Western blotting in SH-SY5Y cells. The settings on record: peptide 0.001, 0.01, 0.1, or 1 mM, 24 hours, vs control group without peptide. As for the experimental part: as §1
Another experiment concerns IL-10. Kind of experiment: IL-10 expression by real-time qPCR in SH-SY5Y cells. The settings on record: peptide 0.001, 0.01, 0.1, or 1 mM, 24 hours, vs control group without peptide. As for the experimental part: In the present example, to confirm the effect inhibiting a neuroinflammatory response by peptide treatment, which is one of the main causes of a neurodegenerative disease, the effect of increasing the expression of IL-10, one of the anti-inflammatory cytokines, was confirmed. Specifically, the prepared peptides were added to SH-SY5Y, a human neural cell line, at a concentration of 0.001, 0.01, 0.1, or 1 mM, and the cells were cultured at 37° C. and 5% CO2 for 24 hours. Afterward, total RNA was extracted from the culture, cDNA was synthesized, and real-time qPCR was performed using the IL-10 primers in Table 6 below to measure the expression level of IL-10. Meanwhile, a group to which no peptide was added was used as a control group.
In the present example to confirm the effect of inhibiting a neuroinflammatory response, which is one of the main causes of a neurodegenerative disease, by peptide treatment, the effect of increasing the expression of IL-10, one of the anti-inflammatory cytokines, was attempted. Specifically, the prepared peptide was added to SH-SY5Y, a human neural cell line, at a concentration of 0.001, 0.01, 0.1, or 1 mM, and the cells were cultured at 37° C. and 5% CO2 for 24 hours. Afterward, total RNA was extracted from the culture, cDNA was synthesized, and real-time qPCR was performed using the IL-10 primers in Table 6 above to measure the expression level of IL-10. Meanwhile, a group to which no peptide was added was used as a control group.

The subject of experiment [1] is amyloid precursor protein (APP). As to the kind of experiment: APP expression by real-time qPCR in SH-SY5Y cells. The settings on record: peptide 0.001, 0.01, 0.1, or 1 mM, 24 hours, vs control group without peptide. As for the experimental part: (§2) In the present example, the effect of inhibiting the expression of APP by peptide treatment was confirmed. To this end, the prepared peptides were added at a concentration of 0.001, 0.01, 0.1, or 1 mM to SH-SY5Y, which is a human neural cell line obtained by isolating cells from the bone marrow of a human having neuroblastoma and proliferating them, and then the cells were cultured for 24 hours. Afterward, total RNA was extracted from the culture, cDNA was synthesized, and real-time quantitative polymerase chain reaction (qPCR) was performed using the APP primers shown in Table 2 below to measure the expression level of amyloid precursor protein (APP). Meanwhile, a group to which no peptide was added was used as a control group, and a group to which a random peptide was added (NRP1: AFMVDNEAIYDICR (SEQ ID NO: 9)) was used as a comparative group.
as §2, with “of amyloid precursor protein” for “of APP”, “real-time qPCR” for “real-time quantitative polymerase chain reaction (qPCR)”, “2 above” for “2 below”, “of APP.” for “of amyloid precursor protein (APP).”

Experiment [2] deals with IDE (insulin degrading enzyme). As to the kind of experiment: IDE expression by real-time qPCR in SH-SY5Y cells. As to conditions: peptide 0.01, 0.1, or 1 mM, 24 hours, vs control group without peptide. As for the experimental part:
IDE is an enzyme that degrades senile plaques produced and aggregated by beta-amyloid (Ab1-42, 1-40). Therefore, the increased expression of IDE may be used as an indicator of a therapeutic effect of a neurodegenerative disease. Specifically, the prepared peptides were added to SH-SY5Y, a human neural cell line, at a concentration of 0.01, 0.1, or 1 mM, and the cells were cultured at 37° C. and 5% CO2 for 24 hours. Afterward, total RNA was extracted from the culture, cDNA was synthesized, and real-time qPCR was performed using the IDE primers in Table 5 below to measure the expression level of IDE. Meanwhile, a group to which no peptide was added was used as a control group.

Experiment [3] has as its system Brain Derived Neurotrophic Factor (BDNF). Kind of experiment: BDNF expression by real-time qPCR in SH-SY5Y cells. As to conditions: peptide 0.001, 0.01, 0.1, or 1 mM, 24 hours, vs control group without peptide. As for the experimental part:
In the present example, to confirm the effect of improving or treating a degenerative neurological disease through the regeneration of the nervous system by peptide treatment, the effect of increasing the expression of Brain Derived Neurotrophic Factor (BDNF) was examined. Specifically, the prepared peptides were added to SH-SY5Y, a human neural cell line, at a concentration of 0.001, 0.01, 0.1, or 1 mM, and the cells were cultured at 37° C. and 5% CO2 for 24 hours. Afterward, total RNA was extracted from the culture, cDNA was synthesized, and real-time qPCR was performed using the BDNF primers shown in Table 8 below to measure the expression level of BDNF. Meanwhile, a group to which no peptide was added was used as a control group.

The next experiment deals with ADAM 10. Kind of experiment: ADAM 10 expression by real-time qPCR in SH-SY5Y cells. As to conditions: peptide 0.001, 0.01, 0.1, or 1 mM, 24 hours, vs control group without peptide. As for the experimental part:
ADAM 10 is an alpha-secretase that cleaves APP into a non-toxic fragment and inhibits the production of beta-amyloid (β-amyloid, Ab1-42, 1-40). Therefore, the increased expression of ADAM 10 may be used as an indicator of a therapeutic effect on a neurodegenerative disease. Specifically, the prepared peptides were added to SH-SY5Y, a human neural cell line, at a concentration of 0.001, 0.01, 0.1, or 1 mM, and the cells were cultured at 37° C. and 5% CO2 for 24 hours. Afterwards, total RNA was extracted from the culture, cDNA was synthesized, and real-time qPCR was performed using the ADAM 10 primers shown in Table 3 below to measure the expression level of ADAM 10. Meanwhile, a group to which no peptide was added was used as a control group.

Consider LKLKALAALIKKIL [Peptide-1], for which, in the experiment with ADAM 17, the “expression of ADAM 17 (gene, qPCR)” value is “increased”. For the same sequence, the “expression of sAPPa (Western blotting)” value in the experiment on sAPPa is given as “increased”. The “length of the neurites” value in the experiment with SH-SY5Y is listed as “increased”. Moreover, the “expression of ADAM 17 protein (Western blotting)” value (from here on “expression of ADAM 17 protein”) with ADAM 17 protein is “increased”. The “expression of IL-10” value with IL-10 is “increased”. Moreover, in [1], the “expression of APP” value is “inhibited”. Moreover, the “expression of IDE” value in experiment [2] is reported as “increased”.

As for IKLLSIVAWAKKKI [Peptide-2], the “length of the neurites” value with SH-SY5Y was “increased”. For the same sequence, in experiment [2], the “expression of IDE” value was “increased”.

For the sequence INLLKSEGKIIKSL [Peptide-10], in the experiment on ADAM 17, the “expression of ADAM 17 (gene, qPCR)” value is listed as “increased”. For the same sequence, the “expression of BDNF” value in experiment [3] is given as “increased”.

Consider KALAALAKK [Peptide-8], for which, in the experiment on ADAM 10, the “expression of ADAM 10” value is listed as “increased”. Besides, in [1], the “expression of APP” value was “inhibited”. In addition, the “expression of IDE” value in experiment [2] is listed as “increased”.

Turning to INIKVLIAKKIL [Peptide-4], in the experiment on ADAM 17, the “expression of ADAM 17 (gene, qPCR)” value is “increased”. Further, in the experiment with ADAM 10, the “expression of ADAM 10” value is “increased”. Moreover, the “expression of sAPPa (Western blotting)” value in the experiment on sAPPa is “increased”. The “expression of ADAM 17 protein” value in the experiment on ADAM 17 protein is recorded as “increased”. Also, in the experiment with IL-10, the “expression of IL-10” value is “increased”. For the same sequence, the “expression of APP” value in [1] is recorded as “inhibited”. Besides, the “expression of IDE” value in experiment [2] is “increased”.

Take GRILGFSPFR [Peptide-12]: in the experiment on ADAM 17, the “expression of ADAM 17 (gene, qPCR)” value was “increased”. In [3], the “expression of BDNF” value is listed as “increased; also recorded: more significant”. The “expression of IL-10” value in the experiment with IL-10 is given as “increased”. Moreover, in experiment [1], the “expression of APP” value is on record as “inhibited”.

In the case of INLKALAAKIKIL [Peptide-3], in the experiment on ADAM 10, the “expression of ADAM 10” value is given as “increased”. In addition, the “expression of IL-10” value in the experiment with IL-10 is given as “increased”. Further, the “expression of IDE” value in experiment [2] is “increased”.

As for LNIRGLGAKKKI [Peptide-5], the “expression of ADAM 10” value in the experiment on ADAM 10 is on record as “increased”. For the same sequence, the “expression of IL-10” value in the experiment with IL-10 is given as “increased”. Also, in [1], the “expression of APP” value is “inhibited”. For the same sequence, the “expression of IDE” value in experiment [2] is “increased”.

Consider KALAALAKKIL [Peptide-7], for which, in the experiment on ADAM 10, the “expression of ADAM 10” value is given as “increased”. The “expression of sAPPa (Western blotting)” value with sAPPa is on record as “increased”. In addition, the “expression of ADAM 17 protein” value in the experiment on ADAM 17 protein is given as “increased”. Moreover, the “expression of IL-10” value in the experiment with IL-10 is recorded as “increased”. For the same sequence, the “expression of APP” value in experiment [1] was “inhibited”. In addition, the “expression of IDE” value in [2] was “increased”.

Regarding INLLKIAGKIINIL [Peptide-9], the “expression of ADAM 17 (gene, qPCR)” value in the experiment on ADAM 17 was “increased”. Besides, the “expression of BDNF” value in [3] is recorded as “increased”. In addition, the “expression of IL-10” value with IL-10 is given as “increased; also recorded: more significant”.

As to GRPPGFSLAR [Peptide-11], the “expression of ADAM 17 (gene, qPCR)” value in the experiment with ADAM 17 is “increased”. For the same sequence, the “expression of BDNF” value in experiment [3] was “increased; also recorded: more significant”. For the same sequence, the “expression of IL-10” value with IL-10 was “increased”. In [1], the “expression of APP” value is “inhibited”.

With LNLRGLAKKKL [Peptide-6], the “length of the neurites” value with SH-SY5Y is recorded as “increased”. In addition, the “expression of IDE” value in experiment [2] is “increased”.
